Measured values published in US6599283B1, “Method of preventing reperfusion injury” (priority 2001, dated 2003).

What was measured:
[1] = tested on: AMI patients undergoing primary PTCA; assay: Metabolic data: creatine kinase (CK) and CK-MB; assay type: in vivo, human; conditions: mean ± SD
Description: (§1) Fifty four AMI patients undergoing primary PTCA were randomized to intracoronary adenosine or saline. The 2 groups were similar for age, sex, and infarct location. Patients referred for PTCA within 3 hours from the onset of AMI were considered for the study. Patients underwent diagnostic coronary angiography. If the culprit lesion was suitable for PTCA and presented with a TIMI flow from 0 to 2, the patient was included in the study and randomized after informed consent had been obtained. Patients presenting with TIMI 3 flow were diagnosed as having spontaneous reperfusion and were not included in the study.
After left and right coronary arteriography by the femoral approach, a temporary pacing wire was advanced into the right ventricle and connected with a pacemaker left on demand at 60 bpm. The obstruction of the infarct-related artery was crossed with a 0.014-in guidewire, and an over-the-wire balloon catheter was positioned at the level of the obstruction. The wire was pulled out, and diluted contrast was injected through the central lumen of the catheter to confirm positioning of the catheter tip downstream of the obstruction and to assess patency of the distal vessel. […] The guidewire was then readvanced into the distal vessel, and the balloon was deflated to initiate reperfusion of the ischemic territory. […]

[2] = tested on: AMI patients undergoing primary PTCA; assay: Clinical events / clinical course in hospital after primary PTCA; assay type: in vivo, human
Description: as §1
(§2) After left and right coronary arteriography by the femoral approach, a temporary pacing wire was advanced into the right ventricle and connected with a pacemaker left on demand at 60 bpm. The obstruction of the infarct-related artery was crossed with a 0.014-in guidewire, and an over-the-wire balloon catheter was positioned at the level of the obstruction. The wire was pulled out, and diluted contrast was injected through the central lumen of the catheter to confirm positioning of the catheter tip downstream of the obstruction and to assess patency of the distal vessel. The balloon was inflated, and either adenosine (4 mg in 2 mL saline) or saline (2 mL) was hand-injected into the distal vascular bed in a random fashion. The rate of injection was such as to complete treatment in 1 minute. The guidewire was then readvanced into the distal vessel, and the balloon was deflated to initiate reperfusion of the ischemic territory. The dilatation procedure was completed according to standard technique. Stenting of the dilated coronary segment was performed only for suboptimal balloon results or flow-limiting dissections. […] The final angiogram was then obtained, and the patient was transferred to the intensive coronary care unit. If symptoms and/or ECG changes consistent with vessel reclosure occurred during this interval, coronary angiography was performed immediately, and therapeutic measures were applied. The dilation procedure was limited to the culprit lesion in all patients.
(§3) The primary end points of this study were feasibility and safety of intracoronary adenosine administration in the setting of primary PTCA and its effect on coronary blood flow. As secondary end points, indexes of myocardial damage, including left ventricular regional function, Q-wave MI, recurrence of angina, nonfatal MI, heart failure, and cardiac death were evaluated.
Physicians in charge of the patients in the intensive coronary care unit were informed of the angiographic results of the PTCA but were blinded to the intracoronary treatment administered during the procedure.

[3] = tested on: AMI patients undergoing primary PTCA; conditions: in vivo
Description: as §1
After left and right coronary arteriography by the femoral approach, a temporary pacing wire was advanced into the right ventricle and connected with a pacemaker left on demand at 60 bpm. […] The guidewire was then readvanced into the distal vessel, and the balloon was deflated to initiate reperfusion of the ischemic territory. […]
as §3

[4] = tested on: infarct-related artery; assay: Angiographic analysis (residual stenosis, TIMI flow, no-reflow) after primary PTCA; assay type: in vivo, human
Description: as §1
After left and right coronary arteriography by the femoral approach, a temporary pacing wire was advanced into the right ventricle and connected with a pacemaker left on demand at 60 bpm. The obstruction of the infarct-related artery was crossed with a 0.014-in guidewire, and an over-the-wire balloon catheter was positioned at the level of the obstruction. The wire was pulled out, and diluted contrast was injected through the central lumen of the catheter to confirm positioning of the catheter tip downstream of the obstruction and to assess patency of the distal vessel. The balloon was inflated, and either adenosine (4 mg in 2 mL saline) or saline (2 mL) was hand-injected into the distal vascular bed in a random fashion. The rate of injection was such as to complete treatment in 1 minute. The guidewire was then readvanced into the distal vessel, and the balloon was deflated to initiate reperfusion of the ischemic territory. The dilatation procedure was completed according to standard technique. Stenting of the dilated coronary segment was performed only for suboptimal balloon results or flow-limiting dissections. […]
The angiograms were reread as a single group, in chronological sequence, by observers who had not participated in the invasive procedure and were blinded to the treatment received. […] Diameter stenosis was measured by an automatic edge-detection system (Mipron, Kontron). […]

[5] = tested on: left ventricle; assay: Left ventricular regional function by 2D echocardiography; assay type: in vivo, human; conditions: echocardiogram after 1 week vs admission
Description: as §1, §2
Left ventricular function was evaluated by 2D echocardiography within 24 hours from admission and after 1 week. Echocardiography was performed with the patient lying supine with a 2.5-MHz transducer fitted to a dedicated system (Hewlett-Packard Sonos 1500). Images were recorded on S-VHS tapes and analyzed offline by 2 experienced observers blinded to the angiographic data. Four views were used: the parasternal long- and short-axis (at the level of the papillary muscle) and apical 2- and 4-chamber views. The left ventricle was divided into 16 segments. In each segment, wall motion was graded as normal, hypokinetic, akinetic, or dyskinetic. Segmental motion at admission was compared with segmental motion at 1 week to detect changes of regional function.

[6] = intracoronary adenosine 4 mg in 2 mL saline, n = 27

Structure (SMILES): Nc1ncnc2c1ncn2[C@@H]1O[C@H](CO)[C@@H](O)[C@H]1O [Adenosine, adenosine]
- Peak CK [1]: 1994±1782 U/L
- Peak CK-MB [1]: 156±142 UAL
- Length of hospital stay ([2]; hospital stay): 9.1 ± 0.8 days
- Recurrent angina and/or ischemia ([2]; intracoronary adenosine 4 mg in 2 mL saline into distal vascular bed before balloon deflation, n = 27): 3(11) number (%) of patients
- Cardiac death [2, 6]: 0(0) number (%) of patients
- Cumulative clinical end points (recurrent angina and/or ischemia, non-fatal AMI, heart failure, cardiac death) [2, 6]: 5(18) number (%) of patients
- Heart failure [2, 6]: 2(7) number (%) of patients
- Nonfatal AMI [2, 6]: 0(0) number (%) of patients
- Clinical diagnosis of heart failure ([2]; n = 27): Two
- Composite end point of recurrent angina, nonfatal MI, heart failure, and cardiac death ([2]; n = 27): 5 patients
- Deaths in hospital ([2]; n = 27): No deaths
- Developed a Q-wave ML ([2]; n = 27): Sixteen
- Recurrence of angina ([2]; n = 27): Three
- Bradyarrhythmias or tachyarrhythmias associated with protocol [3]: No bradyarrhythmias or tachyarrhythmias
- Residual diameter stenosis by quantitative coronary arteriography ([4]; after PTCA, mean ± SD): 27.8±9.5%
- Flow in the infarct-related artery (TIMI grade) ([4]; at the end of the dilation procedure): TIMI 3 in all adenosine patients
- No-reflow phenomenon (drop of ≧1 TIMI grades in final angiogram relative to post-PTCA angiogram) ([4]; final angiogram 30 minutes after dilation, n = 27): 1 patient
- Regional wall motion unchanged [5]: 38 segments
- Worsening of wall motion, share of segments [5]: 2%
- Wall motion improved, share of initially dyssynergic segments ([5]; 114 dyssynergic segments): 64%
- Worsening of wall motion ([5]; 114 dyssynergic segments): 3 segments
- Wall motion improved, initially dyssynergic segments ([5]; 114 dyssynergic segments, 23 patients): 73 segments
